Converted amounts (≈) assume the structure as drawn. Like-named read-outs stand apart in the source and are kept apart here.
Experiments:
[1] = in vitro; conditions: African green monkey
[2] = tested on: Mtb; test: microbe, parasite or virus in culture; assay type: cell-based, Mycobacterium tuberculosis; conditions: Mycobacterium tuberculosis, read-out: MIC (I)
[3] = tested on: Mtb; test: microbe, parasite or virus in culture; assay type: cell-based, Mycobacterium tuberculosis; conditions: Mycobacterium tuberculosis, read-out: MIC (III)

SMILES | CC50 [1] [µg/mL] | MIC [2] [µg/mL] | MIC [3] [µg/mL]
CCOC(=O)NC(=O)c1ccsc1NC(=O)c1ccc2cnccc2n1 [Compound 113] | > 50 | > 3 | > 25
CCOC(=O)NC(=O)c1ccsc1NC(=O)c1cn2c(n1)CCCC2 [Compound 309] | < 25 | 1 to 3 (≈ 2.76 to 8.28 µM) | 5 to 25 (≈ 13.8 to 69 µM)
CCOC(=O)NC(=O)c1cc(C(=O)OCC)sc1NC(=O)c1nc2cnccc2s1 [Compound 279] | 25 to 50 (≈ 55.7 to 111 µM) | > 3 | > 25
CCC(OC(=O)NC(=O)c1ccsc1NC(=O)c1cnc2ccnn2c1)c1ccccc1 (stereo not drawn) [Compound 306] | < 25 | > 3 | > 25
CCOC(=O)NC(=O)c1ccsc1NC(=O)c1cc(O)nc2ccccc12 [Compound 115] | > 50 | > 3 | > 25
CC(C)OC(=O)NC(=O)c1ccsc1NC(=O)/C=C/c1nc2ccccc2s1 [Compound 366] | < 25 | < 1 | 5 to 25 (≈ 12 to 60.2 µM)
CCOC(=O)NC(=O)c1ccsc1NC(=O)c1ccc(=O)[nH]n1 [Compound 91] | > 50 | 1 to 3 (≈ 2.97 to 8.92 µM) | < 5
CCOC(=O)NC(=O)c1ccsc1NC(=O)C1CCc2ccccc2N1 (stereo not drawn) [Compound 143] | > 50 | > 3 | 5 to 25 (≈ 13.4 to 66.9 µM)
CN(C)C(=O)NC(=O)c1ccsc1NC(=O)c1cn2ccccc2n1 [Compound 383] | < 25 | > 3 | > 25
O=C(NC(=O)c1ccsc1NC(=O)c1nc2ccccc2s1)OCc1ccccc1C(F)(F)F [Compound 294] | 25 to 50 (≈ 49.5 to 98.9 µM) | > 3 | > 25
CCOC(=O)NC(=O)c1ccsc1NC(=O)c1nc2cccnc2s1 [Compound 83] | > 50 | < 1 | < 5
O=C(NC(=O)c1ccsc1NC(=O)c1cn2ccccc2n1)OCCOCc1ccccc1 [Compound 374] | 25 to 50 (≈ 53.8 to 108 µM) | < 1 | > 25
CCOC(=O)NC(=O)c1ccsc1NC(=O)c1ccnc(NC(=O)N2CCCCC2)c1 [Compound 51] | 25 to 50 (≈ 56.1 to 112 µM) | < 1 | > 25
CCOC(=O)NC(=O)c1ccsc1NC(=O)c1nc2cnc(N3CCOCC3)cc2s1 [Compound 311] | > 50 | < 1 | > 25
CC(C)OC(=O)NC(=O)c1ccsc1NC(=O)c1ccn2nccc2c1 [Compound 317] | < 25 | < 1 | > 25
CC(C)OC(=O)NC(=O)c1ccsc1NC(=O)c1cc2ccccn2n1 [Compound 352] | 25 to 50 (≈ 67.1 to 134 µM) | < 1 | > 25
CCOC(=O)NC(=O)c1ccsc1NC(=O)C1=Cc2cc(OC)ccc2OC1 [Compound 68] | > 50 | < 1 | < 5
CCOC(=O)NC(=O)c1ccsc1NC(=O)c1csc(C(F)(F)F)n1 [Compound 131] | < 25 | > 3 | 5 to 25 (≈ 12.7 to 63.6 µM)
CCOC(=O)NC(=O)c1ccsc1NC(=O)c1cnc2ccccn12 [Compound 142] | 25 to 50 (≈ 69.8 to 140 µM) | > 3 | > 25
CCOC(=O)NC(=O)c1ccsc1NC(=O)c1cc(O)ncn1 [Compound 147] | > 50 | > 3 | > 25
CCC(CC)OC(=O)NC(=O)c1ccsc1NC(=O)c1nc2cnccc2s1 [Compound 328] | < 25 | < 1 | > 25

SMILES | CC50 [1] [µg/mL] | MIC [2] [µg/mL] | MIC [3] [µg/mL]
CCOC(=O)NC(=O)c1ccsc1NC(=O)c1cc2ccccc2s1 [Compound 90] | 25 to 50 (≈ 66.8 to 134 µM) | < 1 | < 5
CCOC(=O)NC(=O)c1ccsc1NC(=O)c1nc2c(s1)CCCC2 [Compound 217] | > 50 | < 1 | > 25
CC(=O)N1CCC(OC(=O)NC(=O)c2ccsc2NC(=O)c2cn3ccccc3n2)CC1 [Compound 375] | 25 to 50 (≈ 54.9 to 110 µM) | > 3 | > 25
C#CCOC(=O)NC(=O)c1ccsc1NC(=O)c1nc2cnccc2s1 [Compound 100] | 25 to 50 (≈ 64.7 to 129 µM) | < 1 | > 25
CCOC(=O)NC(=O)c1cc(F)sc1NC(=O)c1nc2cccnc2s1 [Compound 318] | 25 to 50 (≈ 63.4 to 127 µM) | < 1 | > 25
CC(C)OC(=O)NC(=O)c1ccsc1NC(=O)c1cnc2ccnn2c1 [Compound 298] | < 25 | < 1 | < 5
CCOC(=O)NC(=O)c1ccsc1NC(=O)c1nc2ccc(NC(=O)CN)cc2s1 [Compound 393] | < 25 | > 3 | > 25
CCOC(=O)NC(=O)c1ccsc1NC(=O)c1cc2cnccc2s1 [Compound 334] | > 50 | < 1 | > 25
CCOC(=O)NC(=O)c1ccsc1NC(=O)c1cc2ccncc2s1 [Compound 329] | < 25 | < 1 | > 25
CC(C)OC(=O)NC(=O)c1ccsc1NC(=O)c1c(F)c(F)c(F)c(F)c1F [Compound 296] | < 25 | > 3 | 5 to 25 (≈ 11.8 to 59.2 µM)
CCOC(=O)NC(=O)c1ccsc1NC(=O)c1cncn1C [Compound 263] | > 50 | > 3 | > 25
CC(C)COC(=O)NC(=O)c1ccsc1NC(=O)c1nc2ccccc2s1 [Compound 281] | 25 to 50 (≈ 62 to 124 µM) | < 1 | > 25
CCOC(=O)NC(=O)c1cc(C)sc1NC(=O)c1ccc2scnc2c1 [Compound 62] | 25 to 50 (≈ 64.2 to 128 µM) | 1 to 3 (≈ 2.57 to 7.7 µM) | > 25
CCOC(=O)NC(=O)c1ccsc1NC(=O)c1nc2c(N3CCOCC3)nccc2s1 [Compound 248] | > 50 | < 1 | > 25
CCOC(=O)NC(=O)c1ccsc1NC(=O)c1nc(-c2ccccc2)oc1C [Compound 130] | > 50 | > 3 | > 25
CCOC(=O)NC(=O)c1ccsc1NC(=O)c1nc2ccccc2o1 [Compound 396] | < 25 | < 1 | > 25
CC(C)(C)C(=O)Nc1cc(C(=O)Nc2sccc2C(=O)NC(=O)OCCN2CCOCC2)ccn1 [Compound 32] | > 50 | > 3 | > 25
CCOC(=O)NC(=O)c1ccsc1NC(=O)/C=C/c1ccncc1 [Compound 356] | 25 to 50 (≈ 72.4 to 145 µM) | > 3 | > 25
COCCOC(=O)NC(=O)c1ccsc1NC(=O)c1nc2ccccc2s1 [Compound 18] | > 50 | < 1 | > 25
CCOC(=O)NC(=O)c1ccsc1NC(=O)c1cnc2ccoc2c1 [Compound 353] | 25 to 50 (≈ 69.6 to 139 µM) | 1 to 3 (≈ 2.78 to 8.35 µM) | > 25
CCOC(=O)NC(=O)c1ccsc1NC(=O)c1ccnc(NC(=O)C(C)(C)C)n1 [Compound 118] | > 50 | > 3 | 5 to 25 (≈ 11.9 to 59.6 µM)

SMILES | CC50 [1] [µg/mL] | MIC [2] [µg/mL] | MIC [3] [µg/mL]
CCOC(=O)NC(=O)c1ccsc1NC(=O)C1=Cc2cccc(OC)c2OC1 [Compound 66] | > 50 | < 1 | < 5
CC(C)OC(=O)NC(=O)c1cc(F)sc1NC(=O)c1nc2cnccc2s1 [Compound 104] | < 25 | < 1 | < 5
CC(C)OC(=O)NC(=O)c1ccsc1NC(=O)c1nc2ncccc2s1 [Compound 390] | < 25 | < 1 | > 25
CCOC(=O)NC(=O)c1ccsc1NC(=O)C1=Cc2ccccc2OC1 [Compound 67] | > 50 | < 1 | < 5
O=C(NC(=O)c1ccsc1NC(=O)c1nc2cnccc2s1)OCCC(F)(F)F [Compound 320] | > 50 | < 1 | > 25
CC(C)OC(=O)NC(=O)c1ccsc1NC(=O)c1nc2ccccc2o1 [Compound 397] | < 25 | < 1 | > 25
CCOC(=O)NC(=O)c1ccsc1NC(=O)c1ccc2cnccc2c1 [Compound 145] | > 50 | > 3 | > 25
Cc1cc(COC(=O)NC(=O)c2ccsc2NC(=O)c2nc3cnccc3s2)ccn1 [Compound 280] | 25 to 50 (≈ 55.1 to 110 µM) | > 3 | > 25
O=C(NC(=O)c1ccsc1NC(=O)c1nc2ccccc2s1)OCCOCc1ccccc1 [Compound 371] | < 25 | < 1 | 5 to 25 (≈ 10.4 to 51.9 µM)
CC(=O)N1CCC(OC(=O)NC(=O)c2ccsc2NC(=O)c2nc3cnccc3s2)CC1 [Compound 367] | 25 to 50 (≈ 52.8 to 106 µM) | > 3 | > 25
O=C(Nc1sccc1C(=O)NC(=O)N1CCOCC1)c1nc2cnccc2s1 [Compound 386] | < 25 | > 3 | > 25
CCOC(=O)NC(=O)c1ccsc1NC(=O)c1ccc2nccn2n1 [Compound 77] | > 50 | 1 to 3 (≈ 2.78 to 8.35 µM) | > 25
CCOC(=O)NC(=O)c1ccsc1NC(=O)c1ccc2sc(N3CCN(C)CC3)nc2c1 [Compound 59] | > 50 | < 1 | 5 to 25 (≈ 10.6 to 52.8 µM)
CCOC(=O)NC(=O)c1ccsc1NC(=O)c1cc2ccccc2cn1 [Compound 116] | > 50 | > 3 | > 25
CCOC(=O)NC(=O)c1ccsc1NC(=O)Nc1nc2ccccc2s1 [Compound 312] | 25 to 50 (≈ 64 to 128 µM) | > 3 | > 25
CCOC(=O)NC(=O)c1ccsc1NC(=O)c1nc2c(N3CCN(C)CC3)nccc2s1 [Compound 262] | 25 to 50 (≈ 52.7 to 105 µM) | 1 to 3 (≈ 2.11 to 6.32 µM) | 5 to 25 (≈ 10.5 to 52.7 µM)
CCOC(=O)N(C)C(=O)c1ccsc1NC(=O)c1cn2ccccc2n1 [Compound 377] | 25 to 50 (≈ 67.1 to 134 µM) | > 3 | > 25
O=C(NC(=O)c1ccsc1NC(=O)c1cnc2ccnn2c1)OCc1ccccc1 [Compound 300] | 25 to 50 (≈ 59.3 to 119 µM) | > 3 | > 25
CCOC(=O)NC(=O)c1cc(F)sc1NC(=O)c1ccc2nccn2n1 [Compound 387] | < 25 | 1 to 3 (≈ 2.65 to 7.95 µM) | > 25

Reference: patent US20160194299A1 (priority 2013, published 2016)
